Measured values as given in ChEMBL document CHEMBL5465560, “Selectivity Literature for EUbOPEN Chemogenomic Library” (2024).

Assays:
[1] = biological target: Tyrosine-protein kinase receptor Tie-1 (Homo sapiens) (UniProt P35590); conditions: at 10 µM
[2] = biological target: Mitogen-activated protein kinase 9 (Homo sapiens, UniProt P45984); assay: Selectivity interaction (ProQinase) EUB0000171b MAPK9
[3] = biological target: T1, Cyclin-dependent kinase-like 2 (Homo sapiens) (UniProt Q92772); assay: Selectivity interaction (KinomeScan (DiscoverX)) EUB0001619a CDKL2; conditions: at 1 µM
T1 sequence (whole entry): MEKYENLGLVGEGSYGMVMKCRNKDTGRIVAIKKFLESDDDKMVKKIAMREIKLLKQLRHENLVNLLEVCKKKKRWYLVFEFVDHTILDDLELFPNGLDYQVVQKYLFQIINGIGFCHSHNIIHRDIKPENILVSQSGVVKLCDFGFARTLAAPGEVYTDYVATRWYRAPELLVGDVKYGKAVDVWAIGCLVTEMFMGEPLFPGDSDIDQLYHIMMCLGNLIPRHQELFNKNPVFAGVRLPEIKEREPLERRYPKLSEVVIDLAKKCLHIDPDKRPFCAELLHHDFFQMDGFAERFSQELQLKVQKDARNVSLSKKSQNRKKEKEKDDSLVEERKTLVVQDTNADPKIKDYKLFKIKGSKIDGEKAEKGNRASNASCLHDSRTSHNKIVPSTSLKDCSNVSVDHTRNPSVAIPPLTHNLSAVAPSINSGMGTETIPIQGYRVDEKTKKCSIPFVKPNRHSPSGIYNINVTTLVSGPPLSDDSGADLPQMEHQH

[4] = biological target: Serine/threonine-protein kinase MARK2 (Homo sapiens) (UniProt Q7KZI7); assay: Selectivity interaction (KinomeScan (DiscoverX)) EUB0000607a MARK2; conditions: at 10 µM
Serine/threonine-protein kinase MARK2 (Homo sapiens), sequence (Q7KZI7 whole entry): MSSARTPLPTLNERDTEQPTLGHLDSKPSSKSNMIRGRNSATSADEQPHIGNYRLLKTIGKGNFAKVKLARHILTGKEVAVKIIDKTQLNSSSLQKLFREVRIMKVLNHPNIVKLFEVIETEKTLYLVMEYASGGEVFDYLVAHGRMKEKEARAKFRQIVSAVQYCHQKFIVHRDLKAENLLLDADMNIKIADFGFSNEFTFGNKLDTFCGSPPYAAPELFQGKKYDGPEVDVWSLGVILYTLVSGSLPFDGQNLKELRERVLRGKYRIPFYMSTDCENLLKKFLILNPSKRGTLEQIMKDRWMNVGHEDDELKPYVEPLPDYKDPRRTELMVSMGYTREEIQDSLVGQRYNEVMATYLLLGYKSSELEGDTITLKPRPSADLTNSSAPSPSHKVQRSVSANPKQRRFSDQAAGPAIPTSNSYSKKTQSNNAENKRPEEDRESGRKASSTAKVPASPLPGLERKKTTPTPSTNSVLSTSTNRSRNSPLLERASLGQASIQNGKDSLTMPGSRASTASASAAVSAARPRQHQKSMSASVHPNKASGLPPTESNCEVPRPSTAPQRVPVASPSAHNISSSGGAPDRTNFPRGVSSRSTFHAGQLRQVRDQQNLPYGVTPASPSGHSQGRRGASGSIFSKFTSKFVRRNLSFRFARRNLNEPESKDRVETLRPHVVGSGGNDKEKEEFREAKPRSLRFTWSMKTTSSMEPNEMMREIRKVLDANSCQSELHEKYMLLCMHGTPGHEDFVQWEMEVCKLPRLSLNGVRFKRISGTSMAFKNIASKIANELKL

[5] = biological target: Serine/threonine-protein kinase Nek7 (Homo sapiens) (UniProt Q8TDX7); assay: Selectivity interaction (KinomeScan (DiscoverX)) EUB0000618a NEK7; conditions: at 10 µM
Serine/threonine-protein kinase Nek7 (Homo sapiens), sequence (Q8TDX7 whole entry, looked up): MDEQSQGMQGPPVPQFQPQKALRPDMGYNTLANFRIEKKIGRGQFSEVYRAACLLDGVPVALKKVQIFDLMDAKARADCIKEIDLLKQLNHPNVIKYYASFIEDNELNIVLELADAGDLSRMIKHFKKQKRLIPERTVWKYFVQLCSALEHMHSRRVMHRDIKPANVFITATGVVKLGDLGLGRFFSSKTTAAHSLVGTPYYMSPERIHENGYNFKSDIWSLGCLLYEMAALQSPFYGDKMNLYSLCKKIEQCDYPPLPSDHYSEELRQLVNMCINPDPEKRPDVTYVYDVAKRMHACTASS

[6] = biological target: Receptor-interacting serine/threonine-protein kinase 2 (Homo sapiens, UniProt O43353); assay: Selectivity interaction (Kinase panel (Invitrogen)) EUB0000639a RIPK2; conditions: at 200 nM
Receptor-interacting serine/threonine-protein kinase 2, sequence (O43353 whole entry): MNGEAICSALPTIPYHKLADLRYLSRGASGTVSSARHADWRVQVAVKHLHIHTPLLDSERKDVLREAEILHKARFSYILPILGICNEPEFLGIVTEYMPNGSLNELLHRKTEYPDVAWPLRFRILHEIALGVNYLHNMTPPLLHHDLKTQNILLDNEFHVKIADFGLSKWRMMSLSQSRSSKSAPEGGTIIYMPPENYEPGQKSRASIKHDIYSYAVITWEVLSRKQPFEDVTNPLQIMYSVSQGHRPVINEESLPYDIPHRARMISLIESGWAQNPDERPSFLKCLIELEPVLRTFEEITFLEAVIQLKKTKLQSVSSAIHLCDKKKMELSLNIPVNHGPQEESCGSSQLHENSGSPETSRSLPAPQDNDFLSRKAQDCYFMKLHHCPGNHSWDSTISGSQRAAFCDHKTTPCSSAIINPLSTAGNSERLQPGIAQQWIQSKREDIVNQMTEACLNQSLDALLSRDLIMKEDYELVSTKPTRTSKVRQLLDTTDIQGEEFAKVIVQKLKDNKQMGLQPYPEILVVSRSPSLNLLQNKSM

[7] = biological target: T2, Serine/threonine-protein kinase STK11 (Homo sapiens) (UniProt Q15831); assay: Selectivity interaction (ActivX KiNativ screen (kinase selectivity in THP-1 cell lysates)) EUB0000639a STK11; type: subcellular; conditions: lysate
T2 sequence (whole entry): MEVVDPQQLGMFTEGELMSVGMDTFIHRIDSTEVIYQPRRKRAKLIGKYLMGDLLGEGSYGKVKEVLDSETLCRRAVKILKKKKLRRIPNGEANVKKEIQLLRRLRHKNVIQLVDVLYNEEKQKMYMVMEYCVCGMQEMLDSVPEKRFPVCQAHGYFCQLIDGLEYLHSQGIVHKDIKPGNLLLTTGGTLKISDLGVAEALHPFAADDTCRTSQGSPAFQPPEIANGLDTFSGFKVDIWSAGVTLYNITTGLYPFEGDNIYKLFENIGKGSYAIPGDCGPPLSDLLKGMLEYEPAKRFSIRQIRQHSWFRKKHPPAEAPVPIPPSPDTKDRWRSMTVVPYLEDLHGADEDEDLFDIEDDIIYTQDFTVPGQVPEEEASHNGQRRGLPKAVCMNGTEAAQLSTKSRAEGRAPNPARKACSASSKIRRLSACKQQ

[8] = biological target: T3, Serine/threonine-protein kinase RIO1 (Homo sapiens) (UniProt Q9BRS2); assay: Selectivity interaction (KinomeScan (DiscoverX)) EUB0000655a RIOK1; conditions: at 10 µM
T3 sequence (whole entry): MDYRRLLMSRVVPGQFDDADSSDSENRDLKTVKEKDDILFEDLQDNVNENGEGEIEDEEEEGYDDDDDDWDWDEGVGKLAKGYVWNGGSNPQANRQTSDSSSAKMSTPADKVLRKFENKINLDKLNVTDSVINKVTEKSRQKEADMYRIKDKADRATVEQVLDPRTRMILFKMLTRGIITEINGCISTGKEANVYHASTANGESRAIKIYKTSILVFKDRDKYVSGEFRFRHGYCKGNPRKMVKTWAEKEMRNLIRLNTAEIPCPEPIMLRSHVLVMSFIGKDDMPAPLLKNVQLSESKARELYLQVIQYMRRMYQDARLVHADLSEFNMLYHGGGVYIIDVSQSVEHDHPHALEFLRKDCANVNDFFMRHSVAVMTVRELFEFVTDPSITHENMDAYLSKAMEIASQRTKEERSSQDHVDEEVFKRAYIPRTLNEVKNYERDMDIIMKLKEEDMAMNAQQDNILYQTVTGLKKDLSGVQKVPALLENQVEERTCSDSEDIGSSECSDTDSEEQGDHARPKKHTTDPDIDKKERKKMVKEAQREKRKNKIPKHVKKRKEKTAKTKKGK

[9] = biological target: T4, Discoidin domain-containing receptor 2 (Homo sapiens) (UniProt Q16832); conditions: at 10 µM
T4 sequence (whole entry): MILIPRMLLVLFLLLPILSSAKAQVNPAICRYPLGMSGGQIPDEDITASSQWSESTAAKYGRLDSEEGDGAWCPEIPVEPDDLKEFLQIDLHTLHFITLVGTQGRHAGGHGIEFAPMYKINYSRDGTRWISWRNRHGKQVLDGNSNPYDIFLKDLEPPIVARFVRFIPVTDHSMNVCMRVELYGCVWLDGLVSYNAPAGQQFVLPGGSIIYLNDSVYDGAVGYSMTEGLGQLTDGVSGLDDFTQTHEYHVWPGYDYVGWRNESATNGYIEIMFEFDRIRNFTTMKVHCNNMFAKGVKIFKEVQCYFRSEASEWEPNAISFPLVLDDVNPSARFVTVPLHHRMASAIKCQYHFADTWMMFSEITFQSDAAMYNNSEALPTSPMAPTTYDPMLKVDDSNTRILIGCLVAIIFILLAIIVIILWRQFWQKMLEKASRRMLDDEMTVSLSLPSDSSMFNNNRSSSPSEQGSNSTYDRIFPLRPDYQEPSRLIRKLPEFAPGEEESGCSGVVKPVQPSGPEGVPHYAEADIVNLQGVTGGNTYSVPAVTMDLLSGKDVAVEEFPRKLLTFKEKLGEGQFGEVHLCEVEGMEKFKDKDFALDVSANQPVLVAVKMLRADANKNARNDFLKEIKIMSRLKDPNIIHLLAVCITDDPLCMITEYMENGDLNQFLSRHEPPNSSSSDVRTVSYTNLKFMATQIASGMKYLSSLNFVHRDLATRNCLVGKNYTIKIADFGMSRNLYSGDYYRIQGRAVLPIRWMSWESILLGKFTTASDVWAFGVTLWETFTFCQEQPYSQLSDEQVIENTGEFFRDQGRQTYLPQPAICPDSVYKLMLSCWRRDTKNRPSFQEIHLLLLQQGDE

[10] = biological target: Tyrosine-protein kinase JAK1 (Homo sapiens, UniProt P23458); assay: Selectivity interaction (KinomeScan (DiscoverX)) EUB0000092b JAK1; conditions: at 10 µM
Tyrosine-protein kinase JAK1, sequence (P23458 whole entry): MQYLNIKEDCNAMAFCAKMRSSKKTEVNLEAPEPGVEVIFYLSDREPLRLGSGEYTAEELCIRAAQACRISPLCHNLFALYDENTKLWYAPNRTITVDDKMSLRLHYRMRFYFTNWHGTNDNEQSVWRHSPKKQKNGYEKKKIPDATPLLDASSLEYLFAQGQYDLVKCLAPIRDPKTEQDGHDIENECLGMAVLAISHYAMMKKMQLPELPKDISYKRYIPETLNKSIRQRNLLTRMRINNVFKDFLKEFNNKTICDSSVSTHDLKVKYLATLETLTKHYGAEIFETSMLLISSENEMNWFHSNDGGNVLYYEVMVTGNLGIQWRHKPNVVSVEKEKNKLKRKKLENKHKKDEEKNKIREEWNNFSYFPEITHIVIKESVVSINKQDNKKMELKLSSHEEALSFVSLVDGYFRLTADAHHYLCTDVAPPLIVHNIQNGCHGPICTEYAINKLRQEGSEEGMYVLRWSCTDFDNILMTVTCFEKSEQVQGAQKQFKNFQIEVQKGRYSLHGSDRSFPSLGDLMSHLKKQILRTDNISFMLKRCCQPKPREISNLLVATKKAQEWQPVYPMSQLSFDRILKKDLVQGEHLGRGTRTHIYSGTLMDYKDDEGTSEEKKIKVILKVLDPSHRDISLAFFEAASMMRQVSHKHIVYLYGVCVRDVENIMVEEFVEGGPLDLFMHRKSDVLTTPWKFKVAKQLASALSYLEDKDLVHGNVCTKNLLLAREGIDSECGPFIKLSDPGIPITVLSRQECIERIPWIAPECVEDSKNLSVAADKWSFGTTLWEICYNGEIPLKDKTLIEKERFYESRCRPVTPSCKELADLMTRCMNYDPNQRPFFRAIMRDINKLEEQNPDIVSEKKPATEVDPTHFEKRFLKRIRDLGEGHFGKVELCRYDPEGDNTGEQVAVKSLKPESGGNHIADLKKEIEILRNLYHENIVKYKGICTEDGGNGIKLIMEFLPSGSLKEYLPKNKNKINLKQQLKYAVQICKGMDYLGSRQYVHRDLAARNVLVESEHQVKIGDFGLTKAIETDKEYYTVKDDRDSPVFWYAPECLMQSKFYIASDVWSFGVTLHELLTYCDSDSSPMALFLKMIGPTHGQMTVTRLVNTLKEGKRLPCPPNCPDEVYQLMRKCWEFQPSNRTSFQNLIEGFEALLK

Mitogen-activated protein kinase 9, sequence (P45984 whole entry, looked up): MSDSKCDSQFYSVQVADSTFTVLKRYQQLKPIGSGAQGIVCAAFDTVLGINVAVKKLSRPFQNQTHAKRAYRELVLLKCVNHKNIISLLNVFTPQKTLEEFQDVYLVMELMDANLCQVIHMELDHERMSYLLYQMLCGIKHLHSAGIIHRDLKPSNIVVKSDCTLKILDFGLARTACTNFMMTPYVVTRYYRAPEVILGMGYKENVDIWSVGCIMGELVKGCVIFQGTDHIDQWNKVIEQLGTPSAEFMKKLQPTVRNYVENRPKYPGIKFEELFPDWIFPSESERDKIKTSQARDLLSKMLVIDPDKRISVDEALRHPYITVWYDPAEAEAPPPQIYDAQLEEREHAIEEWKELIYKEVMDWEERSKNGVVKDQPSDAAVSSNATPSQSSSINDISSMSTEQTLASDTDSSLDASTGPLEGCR
Tyrosine-protein kinase receptor Tie-1 (Homo sapiens), sequence (P35590 whole entry): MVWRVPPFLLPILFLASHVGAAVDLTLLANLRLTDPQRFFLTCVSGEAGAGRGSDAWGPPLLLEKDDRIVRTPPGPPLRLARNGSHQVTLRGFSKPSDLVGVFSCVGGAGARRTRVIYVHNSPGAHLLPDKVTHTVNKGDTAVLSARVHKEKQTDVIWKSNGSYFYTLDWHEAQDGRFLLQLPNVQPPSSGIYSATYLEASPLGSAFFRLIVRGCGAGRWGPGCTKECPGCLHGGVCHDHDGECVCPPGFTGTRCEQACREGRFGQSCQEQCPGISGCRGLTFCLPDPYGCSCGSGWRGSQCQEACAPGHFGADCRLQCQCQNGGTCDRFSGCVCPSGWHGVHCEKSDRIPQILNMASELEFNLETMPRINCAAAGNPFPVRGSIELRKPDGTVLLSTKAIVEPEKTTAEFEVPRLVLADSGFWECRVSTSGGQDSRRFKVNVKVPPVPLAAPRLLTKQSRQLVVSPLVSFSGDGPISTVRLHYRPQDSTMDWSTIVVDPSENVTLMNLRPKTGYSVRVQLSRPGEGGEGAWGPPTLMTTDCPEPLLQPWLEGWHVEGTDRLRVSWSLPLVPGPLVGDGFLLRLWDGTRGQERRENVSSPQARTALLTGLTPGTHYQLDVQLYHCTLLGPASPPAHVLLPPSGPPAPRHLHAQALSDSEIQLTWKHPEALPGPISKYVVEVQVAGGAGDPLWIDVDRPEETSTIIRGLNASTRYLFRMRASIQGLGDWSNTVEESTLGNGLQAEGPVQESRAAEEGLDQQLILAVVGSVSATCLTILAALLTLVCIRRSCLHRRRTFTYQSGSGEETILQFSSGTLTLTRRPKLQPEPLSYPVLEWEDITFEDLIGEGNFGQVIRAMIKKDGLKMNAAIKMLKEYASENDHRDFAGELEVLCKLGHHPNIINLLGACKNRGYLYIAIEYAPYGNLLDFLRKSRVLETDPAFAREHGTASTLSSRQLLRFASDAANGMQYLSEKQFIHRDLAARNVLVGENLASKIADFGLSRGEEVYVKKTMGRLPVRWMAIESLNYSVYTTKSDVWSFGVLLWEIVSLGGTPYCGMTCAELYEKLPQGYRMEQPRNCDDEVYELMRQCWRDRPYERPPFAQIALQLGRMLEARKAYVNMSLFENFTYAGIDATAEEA

Structure (SMILES): Cc1cc([C@@H](C)Nc2ccccc2C(=O)O)c2nc(N3CCOCC3)cc(=O)n2c1 [AZD-6482]
- % of control [1]: 100%

Structure (SMILES): C=CC(=O)Nc1cccc(C(=O)Nc2ccc(Nc3cc(-c4[nH]c(SC)nc4C)ccn3)cc2)c1
- % of control ([2]; at 1 µM): 8%
- % of control ([2]; at 5 µM): 1%

Structure (SMILES): N#Cc1cccc(-c2c[nH]c3ncnc(N4CCOCC4)c23)c1
- % of control [3]: 98%

Structure (SMILES): CNC(=O)Nc1ccc(-c2nc(N3CC4CCC(C3)O4)c3cnn(C4CCC5(CC4)OCCO5)c3n2)cc1
- % of control [4]: 100%

Structure (SMILES): O[C@H]1CC[C@H](Nc2ncc3nc(Nc4c(F)cc(F)cc4F)n([C@H]4CCOC4)c3n2)CC1
- % of control [5]: 95%

Structure (SMILES): CC[C@@H]1[C@H](F)C(=O)N[C@@H]1COc1nccc2cc(C(N)=O)c(OC)cc12 [ZIMLOVISERTIB]
- % of inhibition [6]: 16.8%
- % of inhibition ([7]; at 0.01 µM): -0.5%
- % of inhibition ([7]; at 0.04 µM): 12.2%
- % of inhibition ([7]; at 0.2 µM): 34.8%
- % of inhibition ([7]; at 1 µM): 58.5%
- % of inhibition ([7]; at 5 µM): 85.1%

Structure (SMILES): CN(C)CCOc1ccc(-c2nc(-c3ccncc3)c(-c3ccc4c(c3)CC/C4=N\O)[nH]2)cc1
- % of control [8]: 97%

Structure (SMILES): CCN(CC)CCCCNc1ncc2cc(-c3cc(OC)cc(OC)c3)c(NC(=O)NC(C)(C)C)nc2n1
- % of control [9]: 100%

Structure (SMILES): CCC(=O)N1CCN(c2ccc(-n3c(=O)ccc4cnc5ccc(-c6cnc7ccccc7c6)cc5c43)cc2C(F)(F)F)CC1
- % of control [10]: 76%
